Results reported in patent publication US6689574B1, “Assays for nuclear receptor agonists and antagonists using fluorescence resonance energy transfer” (Merck & Co., Inc., priority 1997, dated 2004).

What was measured:
Assay type in all cases: biochemical
[1] = target: T1, PPARγ (Homo sapiens, UniProt P37231); assay: Titration of known PPARγ agonists in the CBP/PPARγ FRET assay (FIG. 5); details: derived from FIG. 5; agonist-induced CBP-PPARγ FRET
T1 construct: amino acids 176-478 of PPARγ1; GST (N); made in house; host or cells: E. coli (DH5α)

[2] = target: T2, PPARγ1LBD (Homo sapiens, UniProt P37231); assay: FRET assay, Eu3+K-labeled hCBP1-113 with biotin-hPPARγ1LBD and SA-XL665 (experiments 1 and 2); set-up: amino acids 176-478 of PPARγ1; GST (N, cleaved yes); made in house; host or cells: E. coli (DH5α); details: 1 μM AD5075, ratio 665 nm/620 nm
From the text: Experiments were first conducted using hCBP1-113 and hPPARγ1LBD. Purified hPPARγ1LBD was biotinylated with Sulfo-NHS-LC-Biotin (PIERCE) to a biotin:hPPARγ1LBD ratio of 3:1 according to the procedure provided by PIERCE. Purified hCBP1-113 was directly labeled with europium cryptate (Eu3+K) by the method illustrated in FIG. 1.
Thus, this experimental format made use of the fluorescent reagent pair europium cryptate (Eu3+K), which acted as donor, and XL665, which acted as acceptor. hCBP1-113 was directly labeled with europium cryptate (Eu3+K); hPPARγ12LBD was indirectly labeled with XL665 by means of a biotin-streptavidin link. The emission maximum of europium cryptate (Eu3+K) overlaps with the absorption maximum of XL665. Therefore, when europium cryptate (Eu3+K) and XL665 are in close proximity, and the sample is illuminated with light at 337 nm (the absorption maximum of europium cryptate (Eu3+K)), FRET can occur between europium cryptate (Eu3+K) and XL665. This FRET manifests itself as increased emission at 665 nm by XL665. […] When agonist is bound to hPPARγ1LBD, a specific interaction occurs between hPPARγ1LBD and hCBP1-113, thus bringing europium cryptate (Eu3+K) and XL665 into close enough proximity for FRET to occur. […]

[3] = target: T2, PPARγ1LBD; assay: FRET assay, GST-hCBP1-113 with Eu3+K-labeled anti-GST antibody, biotin-hPPARγ1LBD and SA-XL665 (experiment 3); set-up: amino acids 176-478 of PPARγ1; GST (N, cleaved yes); made in house; host or cells: E. coli (DH5α); details: HEPES + 0.05% NP40, 1 μM AD5075, ratio 665 nm/620 nm
Method: In order to get an even better signal-noise ratio, the above-described format was modified slightly for experiment 3. In experiment 3, SA-XL665 (500 nM), biotin-labeled hPPARγ1LBD (100 nM), GST-hCBP1-113, and Eu3+K labeled anti-GST antibody (2.5 μl) were incubated in the presence or absence of AD5075 (1 μM) in HEPES buffer containing 0.05% NP40. A two-fold signal- noise ratio was obtained.
The anti-GST antibody was a goat antibody to GST from Pharmacia (catalogue number 27-4577-01) that was labeled with Eu3+K according to the procedure summarized below. [drawing 2]

[4] = target: T3, GST-hPPARγ1LBD (Homo sapiens, UniProt P37231); assay: FRET assay, biotin-hCBP1-453 with SA-XL665, GST-hPPARγ1LBD and Eu3+K-labeled anti-GST antibody (experiment 4); details: HEPES + 0.05% CHAPS, 1 μM AD5075, ratio 665 nm/620 nm
T3 construct: amino acids 176-478 of PPARγ1; made in house; host or cells: E. coli (DH5α)
Method: To further improve the signal to noise ratio, a series of experiments were conducted. Experiment 4 of Table 1 exemplifies 5 results obtained from those efforts. cDNA encoding a longer fragment of hCBP was cloned and expressed to get hCBP1-453. hCBP1-453 was biotinylated. Biotin-labeled hCBP1-453 (25 nM), SA-XL665 (100 nM), GST-hPPARγ1LBD (1 nM), and Eu3+K-labeled anti-GST antibody (2 nM) were mixed together in the presence or absence of 1 μM AD5075. […] A three- to four-fold signal-noise ratio was obtained.

T2 sequence (P37231 204-505): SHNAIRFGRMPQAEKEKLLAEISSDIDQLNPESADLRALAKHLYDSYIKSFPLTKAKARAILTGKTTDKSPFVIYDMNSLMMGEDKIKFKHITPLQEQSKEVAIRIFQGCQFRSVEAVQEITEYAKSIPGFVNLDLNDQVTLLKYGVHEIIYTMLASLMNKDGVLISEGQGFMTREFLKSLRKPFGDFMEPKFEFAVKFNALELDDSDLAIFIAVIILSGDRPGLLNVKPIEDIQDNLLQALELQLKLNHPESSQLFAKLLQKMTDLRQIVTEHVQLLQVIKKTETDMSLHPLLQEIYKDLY
T2 sequence (Q92793 1-113 partner): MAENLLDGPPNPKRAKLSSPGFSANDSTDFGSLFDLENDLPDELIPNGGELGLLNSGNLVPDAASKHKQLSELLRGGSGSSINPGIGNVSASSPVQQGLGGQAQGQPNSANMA
T1 sequence (P37231 204-505 limits assumed): as the sequence (P37231 204-505) above
T1 sequence (Q92793 1-453 partner limits assumed): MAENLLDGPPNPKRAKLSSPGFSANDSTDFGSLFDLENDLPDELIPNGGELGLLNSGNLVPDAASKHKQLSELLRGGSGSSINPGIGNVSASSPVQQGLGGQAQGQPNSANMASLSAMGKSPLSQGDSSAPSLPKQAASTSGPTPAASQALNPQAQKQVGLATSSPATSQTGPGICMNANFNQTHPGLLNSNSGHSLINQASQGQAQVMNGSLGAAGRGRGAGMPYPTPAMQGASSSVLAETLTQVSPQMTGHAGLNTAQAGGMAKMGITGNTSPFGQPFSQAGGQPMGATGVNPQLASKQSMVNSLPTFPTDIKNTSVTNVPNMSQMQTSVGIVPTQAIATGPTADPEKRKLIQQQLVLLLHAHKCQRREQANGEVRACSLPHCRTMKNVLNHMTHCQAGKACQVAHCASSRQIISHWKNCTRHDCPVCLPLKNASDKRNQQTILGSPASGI
T3 sequence (P37231 204-505): as the sequence (P37231 204-505) above
T3 sequence (Q92793 1-453 partner): as the sequence (Q92793 1-453 partner limits assumed) above

- EC50 [1]: 8 nM
- Emission ratio with AD5075 ([2]; Experiment 1, PBS buffer): 1134
- Emission ratio with AD5075 ([2]; Experiment 2, HEPES + 0.05% NP40): 967
- Emission ratio with AD5075 [3]: 1078
- Emission ratio with AD5075 [4]: 1883
Structure (SMILES): Cc1oc(-c2ccccc2)nc1C(O)COc1ccc(CC2SC(=O)NC2=O)cc1 (centres unmarked) [AD5075]
